The compounds below were run on mouse bone marrow-derived macrophages (assay: Cell proliferation assay (WST-8), mouse bone marrow-derived macrophages). Settings: not given.
Assay type: cell-based
Experimental: (§1) We used THP-1 (a human monocytic leukemia cell line), L929 (a mouse fibroblast cell line), RAW264.7 (a mouse macrophage cell line), and mouse bone marrow-derived macrophages cultured in a flask or plate at 37°C, under a humidified atmosphere of 5% CO2 in air. THP-1 and L929 were obtained from Japan Health Science Foundation. RAW264.7 was purchased from DS Pharma Biomedical Co., Ltd. These cells were cultured in RPMI1640 + 10% FCS consisting of RPMI1640 [+] L-glutamine (Gibco) supplemented with antibiotics (penicillin and streptomycin; Gibco) and 10% fetal calf serum (FCS; Biowest). In cell proliferation assays, they were cultured in flat-bottomed 96-well plates (Corning) in 100 μl/well at a concentration of 1 x 10^5/ml with or without test samples. In the case of mouse peritoneal cells, we employed 1 x 10^6/ml as a cell concentration. After finishing the culture, we added 10 μl of a coloring reagent, WST-8 (Kishida Chemical Co.), which converts to water-soluble colored formazan by the action of a mitochondrial enzyme. Cells were additionally incubated with WST-8 for 3 h and the coloring reaction was stopped by adding 10 μl of 0.1% sodium dodecyl sulfate (SDS) solution. The absorbance of each well was then measured at 450 nm with a Multiskan Ascent plate reader (Labsystems). In principle, we performed cell proliferation assays in duplicate. Half-maximal (50%) inhibitory concentration (IC50) of each test sample was calculated according to the reported formula [15].
(§2) We examined the inhibitory activities of food constituents in cell proliferation assays. Test compounds used in the assays were as follows: curcumin (Wako or Sigma-Aldrich), zerumbone (Wako), genistein (Sigma-Aldrich), chalcone (Wako), corosolic acid (Wako), carnosol (Wako), ursolic acid (Wako), epigallocatechin (Sigma-Aldrich), isoflavone (Wako), apigenin (Wako), chrysin (Wako), flavanone (Wako), resveratrol (Wako), flavone (Wako), quercetin (Wako), daidzein (Wako), and clodronate (Sigma-Aldrich). These compounds were firstly dissolved with dimethyl sulfoxide (DMSO; Wako) and then appropriately diluted with RPMI1640 + 10% FCS to apply the assays. The final concentration of DMSO was adjusted not to exceed 1% at most in cell cultures.

| Compound | Inhibition of mouse bone marrow-derived macrophage proliferation (in words) |
| --- | --- |
| O=P(O)(O)C(Cl)(Cl)P(=O)(O)O [Clodronate, clodronate, reference compound] | comparable strong activity |

Same assay, conditions: Mus musculus, Macrophage; means ± range (n = 2) or standard deviation (n > 2); DMSO less than 1%

| Compound | IC50 |
| --- | --- |
| O=C(/C=C/c1ccccc1)c1ccccc1 [Chalcone, chalcone] | 104 µM |
| O=c1c(-c2ccc(O)cc2)coc2cc(O)ccc12 [Daidzein, daidzein] | 65.1 ± 33.5 µM |
| C[C@H]1[C@H](C)CC[C@]2(C(=O)O)CC[C@]3(C)C(=CC[C@@H]4[C@@]5(C)CC[C@H](O)C(C)(C)[C@@H]5CC[C@]43C)[C@H]12 [Ursolic acid, ursolic acid] | 16.3 ± 4.5 µM |
| C[C@H]1[C@H](C)CC[C@]2(C(=O)O)CC[C@]3(C)C(=CC[C@@H]4[C@@]5(C)C[C@@H](O)[C@H](O)C(C)(C)[C@@H]5CC[C@]43C)[C@H]12 [Corosolic acid, corosolic acid] | 19.6 ± 0.6 µM |
| O=c1c(-c2ccc(O)cc2)coc2cc(O)cc(O)c12 [Genistein, genistein] | 29 ± 21.5 µM |
| O=P(O)(O)C(Cl)(Cl)P(=O)(O)O [Clodronate, clodronate, reference compound] | 25.7 ± 15.6 µM |
| Oc1cc(O)c2c(c1)O[C@H](c1cc(O)c(O)c(O)c1)[C@H](O)C2 [Epigallocatechin, epigallocatechin] | 157 ± 19.9 µM |
| O=c1c(O)c(-c2ccc(O)c(O)c2)oc2cc(O)cc(O)c12 [Quercetin, quercetin] | 126 ± 83.4 µM |
| Oc1ccc(/C=C/c2cc(O)cc(O)c2)cc1 [Resveratrol, resveratrol] | 77.2 ± 13 µM |
| O=c1cc(-c2ccccc2)oc2ccccc12 [Flavone, flavone] | 180 µM |
| O=c1cc(-c2ccc(O)cc2)oc2cc(O)cc(O)c12 [Apigenin, apigenin] | 70 ± 19.8 µM |
| C/C1=C\CC(C)(C)/C=C/C(=O)/C(C)=C/CC1 [Zerumbone, zerumbone] | 32.1 µM |
| O=c1cc(-c2ccccc2)oc2cc(O)cc(O)c12 [Chrysine, chrysin] | 58.2 µM |
| COc1cc(/C=C/C(=O)CC(=O)/C=C/c2ccc(O)c(OC)c2)ccc1O [Curcumin, diferuloylmethane] | 22.4 ± 3.6 µM |
| O=c1c(-c2ccccc2)coc2ccccc12 [Isoflavone, isoflavone] | 106 ± 7.8 µM |
| CC(C)c1cc2c(c(O)c1O)[C@@]13CCCC(C)(C)[C@@H]1C[C@@H]2OC3=O [Carnosol, carnosol] | 63.8 ± 5.5 µM |

Same assay, conditions: means ± range (n = 2) or standard deviation (n > 2); DMSO less than 1%

| Compound | IC50 |
| --- | --- |
| O=C1CC(c2ccccc2)Oc2ccccc21 (stereo not drawn) [Flavanone, flavanone] | 225 ± 66.1 µM |

Each compound was assayed on RAW264.7 (a mouse macrophage cell line) (assay: Cell proliferation assay (WST-8), RAW264.7). Settings: cultured for 3 days.
Assay type: cell-based
Experimental: as §1, with “In the case of mouse peritoneal cells, we employed 1 x 10^6/ml as a cell concentration. After finishing the culture, we added 10 μl of a coloring reagent, WST-8 (Kishida Chemical Co.), which converts to water-soluble colored formazan by the action of a mitochondrial enzyme. Cells were additionally incubated with WST-8 for 3 h and the coloring reaction was stopped by adding 10 μl of 0.1% sodium dodecyl sulfate (SDS) solution.” left out, “In principle, we performed cell proliferation assays in duplicate.” left out
After culturing, they were incubated with WST-8 for 3 h to assess viable cells in the culture. Resultant coloring reaction by WST-8 was measured with a plate-reader at the absorbance of 450 nm. In the vertical axis, the absorbance of only the medium was defined as 0%. Symbols in the Figure represent the percentage of absorbance with curucmin or liposomes to that without the test samples. […]

| Compound | Inhibition of RAW264.7 cell proliferation (in words) |
| --- | --- |
| COc1cc(/C=C/C(=O)CC(=O)/C=C/c2ccc(O)c(OC)c2)ccc1O [Curcumin, diferuloylmethane] | dose-dependent inhibition |

These compounds were tested on L929 (a mouse fibroblast cell line) (assay: Cell proliferation assay (WST-8), L929). Settings: not given.
Assay type: cell-based
Experimental: as §1, §2

| Compound | Inhibition of L929 cell proliferation (in words) |
| --- | --- |
| O=P(O)(O)C(Cl)(Cl)P(=O)(O)O [Clodronate, clodronate, reference compound] | weaker activity |

Same assay, conditions: Mus musculus, L929; means ± range (n = 2) or standard deviation (n > 2); DMSO less than 1%

| Compound | IC50 |
| --- | --- |
| O=C(/C=C/c1ccccc1)c1ccccc1 [Chalcone, chalcone] | 69.5 ± 1.2 µM |
| O=c1c(-c2ccc(O)cc2)coc2cc(O)ccc12 [Daidzein, daidzein] | 220 ± 57.9 µM |
| C[C@H]1[C@H](C)CC[C@]2(C(=O)O)CC[C@]3(C)C(=CC[C@@H]4[C@@]5(C)CC[C@H](O)C(C)(C)[C@@H]5CC[C@]43C)[C@H]12 [Ursolic acid, ursolic acid] | 30.7 ± 0.8 µM |
| C[C@H]1[C@H](C)CC[C@]2(C(=O)O)CC[C@]3(C)C(=CC[C@@H]4[C@@]5(C)C[C@@H](O)[C@H](O)C(C)(C)[C@@H]5CC[C@]43C)[C@H]12 [Corosolic acid, corosolic acid] | 17.7 ± 0.2 µM |
| O=c1c(-c2ccc(O)cc2)coc2cc(O)cc(O)c12 [Genistein, genistein] | 28.2 ± 7.5 µM |
| O=P(O)(O)C(Cl)(Cl)P(=O)(O)O [Clodronate, clodronate, reference compound] | 336 ± 54.9 µM |
| Oc1cc(O)c2c(c1)O[C@H](c1cc(O)c(O)c(O)c1)[C@H](O)C2 [Epigallocatechin, epigallocatechin] | 40.1 ± 3.7 µM |
| O=c1c(O)c(-c2ccc(O)c(O)c2)oc2cc(O)cc(O)c12 [Quercetin, quercetin] | 117 ± 32.5 µM |
| Oc1ccc(/C=C/c2cc(O)cc(O)c2)cc1 [Resveratrol, resveratrol] | 84.8 ± 29.1 µM |
| O=c1cc(-c2ccccc2)oc2ccccc12 [Flavone, flavone] | 34.5 ± 3.4 µM |
| O=c1cc(-c2ccc(O)cc2)oc2cc(O)cc(O)c12 [Apigenin, apigenin] | 46.4 ± 3.3 µM |
| C/C1=C\CC(C)(C)/C=C/C(=O)/C(C)=C/CC1 [Zerumbone, zerumbone] | 30.4 ± 0.1 µM |
| O=c1cc(-c2ccccc2)oc2cc(O)cc(O)c12 [Chrysine, chrysin] | 76.3 ± 11 µM |
| COc1cc(/C=C/C(=O)CC(=O)/C=C/c2ccc(O)c(OC)c2)ccc1O [Curcumin, diferuloylmethane] | 22.8 ± 10.8 µM |
| O=c1c(-c2ccccc2)coc2ccccc12 [Isoflavone, isoflavone] | 65.5 ± 3.6 µM |
| CC(C)c1cc2c(c(O)c1O)[C@@]13CCCC(C)(C)[C@@H]1C[C@@H]2OC3=O [Carnosol, carnosol] | 50.1 ± 2.6 µM |

Same assay, conditions: means ± range (n = 2) or standard deviation (n > 2); DMSO less than 1%

| Compound | IC50 |
| --- | --- |
| O=C1CC(c2ccccc2)Oc2ccccc21 (stereo not drawn) [Flavanone, flavanone] | 211 ± 29.6 µM |

These compounds were tested on THP-1 (a human monocytic leukemia cell line) (assay: Cell proliferation assay (WST-8), THP-1). Settings: not given.
Assay type: cell-based
Experimental: as §1, §2

| Compound | Inhibition of THP-1 cell proliferation (in words) |
| --- | --- |
| O=P(O)(O)C(Cl)(Cl)P(=O)(O)O [Clodronate, clodronate, reference compound] | weaker activity |
| COc1cc(/C=C/C(=O)CC(=O)/C=C/c2ccc(O)c(OC)c2)ccc1O [Curcumin, diferuloylmethane] | dose-dependent inhibition |

Same assay, conditions: Homo sapiens, THP-1, means ± range (n = 2) or standard deviation (n > 2); DMSO less than 1%

| Compound | IC50 |
| --- | --- |
| O=C(/C=C/c1ccccc1)c1ccccc1 [Chalcone, chalcone] | < 30 µM |
| O=c1c(-c2ccc(O)cc2)coc2cc(O)ccc12 [Daidzein, daidzein] | > 400 µM |
| C[C@H]1[C@H](C)CC[C@]2(C(=O)O)CC[C@]3(C)C(=CC[C@@H]4[C@@]5(C)CC[C@H](O)C(C)(C)[C@@H]5CC[C@]43C)[C@H]12 [Ursolic acid, ursolic acid] | < 30 µM |
| C[C@H]1[C@H](C)CC[C@]2(C(=O)O)CC[C@]3(C)C(=CC[C@@H]4[C@@]5(C)C[C@@H](O)[C@H](O)C(C)(C)[C@@H]5CC[C@]43C)[C@H]12 [Corosolic acid, corosolic acid] | < 30 µM |
| O=c1c(-c2ccc(O)cc2)coc2cc(O)cc(O)c12 [Genistein, genistein] | < 30 µM |
| O=P(O)(O)C(Cl)(Cl)P(=O)(O)O [Clodronate, clodronate, reference compound] | > 400 µM |
| Oc1cc(O)c2c(c1)O[C@H](c1cc(O)c(O)c(O)c1)[C@H](O)C2 [Epigallocatechin, epigallocatechin] | 37 ± 29.6 µM |
| O=c1c(O)c(-c2ccc(O)c(O)c2)oc2cc(O)cc(O)c12 [Quercetin, quercetin] | 125 ± 24.1 µM |
| Oc1ccc(/C=C/c2cc(O)cc(O)c2)cc1 [Resveratrol, resveratrol] | 64.6 ± 8.5 µM |
| O=c1cc(-c2ccccc2)oc2ccccc12 [Flavone, flavone] | 86.9 ± 4.1 µM |
| O=c1cc(-c2ccc(O)cc2)oc2cc(O)cc(O)c12 [Apigenin, apigenin] | 37.9 ± 3.9 µM |
| C/C1=C\CC(C)(C)/C=C/C(=O)/C(C)=C/CC1 [Zerumbone, zerumbone] | < 30 µM |
| O=c1cc(-c2ccccc2)oc2cc(O)cc(O)c12 [Chrysine, chrysin] | 46.8 ± 2.8 µM |
| O=c1c(-c2ccccc2)coc2ccccc12 [Isoflavone, isoflavone] | 37.6 ± 11.6 µM |
| CC(C)c1cc2c(c(O)c1O)[C@@]13CCCC(C)(C)[C@@H]1C[C@@H]2OC3=O [Carnosol, carnosol] | < 30 µM |

Same assay, conditions: means ± range (n = 2) or standard deviation (n > 2); DMSO less than 1%

| Compound | IC50 |
| --- | --- |
| O=C(/C=C/c1ccccc1)c1ccccc1 [Chalcone, chalcone] | 17.4 ± 1.8 µM |
| C[C@H]1[C@H](C)CC[C@]2(C(=O)O)CC[C@]3(C)C(=CC[C@@H]4[C@@]5(C)CC[C@H](O)C(C)(C)[C@@H]5CC[C@]43C)[C@H]12 [Ursolic acid, ursolic acid] | 24.6 ± 3.4 µM |
| C[C@H]1[C@H](C)CC[C@]2(C(=O)O)CC[C@]3(C)C(=CC[C@@H]4[C@@]5(C)C[C@@H](O)[C@H](O)C(C)(C)[C@@H]5CC[C@]43C)[C@H]12 [Corosolic acid, corosolic acid] | 18.2 ± 0.2 µM |
| O=c1c(-c2ccc(O)cc2)coc2cc(O)cc(O)c12 [Genistein, genistein] | 16 ± 6.1 µM |
| C/C1=C\CC(C)(C)/C=C/C(=O)/C(C)=C/CC1 [Zerumbone, zerumbone] | 16 ± 0.5 µM |
| COc1cc(/C=C/C(=O)CC(=O)/C=C/c2ccc(O)c(OC)c2)ccc1O [Curcumin, diferuloylmethane] | 13 ± 3.2 µM |
| O=C1CC(c2ccccc2)Oc2ccccc21 (stereo not drawn) [Flavanone, flavanone] | 55.1 ± 10.9 µM |
| CC(C)c1cc2c(c(O)c1O)[C@@]13CCCC(C)(C)[C@@H]1C[C@@H]2OC3=O [Carnosol, carnosol] | 20.5 ± 2.7 µM |

Same assay, conditions: means ± range (n = 2) or standard deviation (n > 2); DMSO less than 1%; listed as curcumin

| Compound | IC50 |
| --- | --- |
| COc1cc(/C=C/C(=O)CC(=O)/C=C/c2ccc(O)c(OC)c2)ccc1O [Curcumin, diferuloylmethane] | < 30 µM |
